The values that follow come from patent US20220143198A1, “COMPOSITIONS AND METHODS RELATED TO TETHERED KETHOXAL DERIVATIVES” (The University of Chicago, priority 2019, published 2022).

In test [1] the test system is 12-mer synthetic RNA oligo containing four guanine bases. Briefly: Labeling activity of phenol-kethoxal and diphenol-kethoxal on 12-mer synthetic RNA oligo (MALDI-TOF). To be noted: 10 min incubation. It is filed as biochemical. How it is done:
To test the labeling activity of phenol-kethoxal and diphenol-kethoxal, the two compounds were incubated with a 12-mer synthetic RNA oligo containing four guanine bases, respectively. After 10 min, the reactions were cleaned-up and analyzed by MALDI-TOF.

Another test relates to Cells. Briefly: Cell permeability and radical-mediated biotinylation of RNA from treated cells (dot blot). Format: cell-based. To be noted: cells treated 10 min, versus control sample. Here is the method:
A second set of test were performed to test cell permeability of phenol-kethoxal and diphenol-kethoxal and if the labeling enhances radical-mediated biotinylation. Cells were treated with phenol-kethoxal and diphenol-kethoxal for 10 min, respectively, and RNA isolated from treated cells. An in vitro biotinylation reaction was performed by mixing these kethoxal derivative-labeled RNAs with biotin-phenol, horseradish peroxidase (HRP), and H2O2, see FIG. 4. HRP is an enzyme that mimics APEX with higher radical generation activity in vitro. The biotinylated RNAs were purified and subjected to dot blot analysis.

Test [2] deals with guanosine. Briefly: Reversibility of kethoxal derivatives by adjusting pH (kethoxal-guanosine adduct dissociation). Format: physicochemical.
The test system of test [3] is guanosine. Description: Reversibility of kethoxal derivatives using GTP for competition (LCMS of free guanosine). It is filed as physicochemical. The following applies: 1:1 ratio.
Where [4] appears, read: pH = 5.8, 10 min after adjusting from pH 10.1, 1:1 ratio.
Where [5] appears, read: pH = 5.8, 4 h after adjusting from pH 10.1, 1:1 ratio.
Where [6] appears, read: pH = 5.8, 24 h after adjusting from pH 10.1, 1:1 ratio.
Where [7] appears, read: pH = 10.1, 10 min, kethoxal derivative and guanosine 1:1.
Where [8] appears, read: pH = 7.0, 10 min, excess GTP added after 10 min.
Where [9] appears, read: pH = 7.0, 2 h, excess GTP competitor.
[10] abbreviates: pH = 7.0, 24 h, excess GTP competitor.

Take `CC(OCCn1cc(-c2ccc(O)c(O)c2)nn1)C(=O)C=O` (stereo not shown) [diphenol-kethoxal]: the “Labeling activity on RNA oligo” value in test [1] is given as “label the oligo efficiently, with all four guanines on all oligo molecules modified”. In addition, in the test on Cells, the “Biotin signal of RNA from treated cells after HRP/biotin-phenol/H2O2 biotinylation” value is listed as “stronger biotin signals compared with the control sample”.
Take `CC(OCCN=[N+]=[N-])C(=O)C=O` (stereo not shown) [drawing 62]: the Conversion of guanosine came to 79.8% in the test on guanosine [2] (setting [4]), 80.2% in the test on guanosine [2] (setting [5]), 81.8% in the test on guanosine [2] (setting [6]) and 79.8% in the test with guanosine [2] (setting [7]).
Turning to `CC(C)(OCCN=[N+]=[N-])C(=O)C=O` [drawing 63], the Conversion of guanosine in the test on guanosine [2] (setting [5]) is on record as 77.6%; with guanosine [2] (setting [6]), 80.3%; with guanosine [2] (setting [7]) it was 77.0%.
For `[N-]=[N+]=NCCOCC(=O)C=O` [drawing 64], in that order: 75.0%, 76.1% and 74.6%.
For `CC(OC(=O)CN=[N+]=[N-])C(=O)C=O` (stereo not shown) [drawing 65], in that order: 77.3%, 77.2% and 75.5%.
For `CC(N=[N+]=[N-])C(=O)C=O` (stereo not shown) [drawing 66], the Conversion of guanosine was 65.6% in the test on guanosine [2] (setting [4]), 65.2% in the test on guanosine [2] (setting [5]), 58.7% with guanosine [2] (setting [6]) and 65.9% with guanosine [2] (setting [7]).
Consider `CC(Br)C(=O)C=O` (stereo not shown) [drawing 67], for which the Conversion of guanosine with guanosine [2] (setting [5]) was found to be 64.3%; in the test on guanosine [2] (setting [6]), 62.9%; in the test with guanosine [2] (setting [7]), 62.7%.
Consider `[N-]=[N+]=NCCCC(=O)C=O` [drawing 70], for which the Conversion of guanosine in the test with guanosine [2] (setting [5]) is listed as 19.0%; in the test with guanosine [2] (setting [6]), 14.7%; with guanosine [2] (setting [7]), 30.2%.
`CC(C(=O)C=O)N(C)C(=O)CN=[N+]=[N-]` (stereo not shown) [drawing 71]: the Conversion of guanosine with guanosine [2] (setting [5]) is listed as 31.9%; in the test on guanosine [2] (setting [6]), 26.5%; in the test on guanosine [2] (setting [7]), 35.6%.
Regarding `[N-]=[N+]=NCCOCCC(=O)C=O` [drawing 72], the Conversion of guanosine in the test with guanosine [2] (setting [5]) came out at 16.6%; with guanosine [2] (setting [7]), 19.7%.
Turning to `O=CC(=O)c1ccccc1` [drawing 73], the Conversion of guanosine with guanosine [2] (setting [4]) is reported as 12.2%; with guanosine [2] (setting [5]), 10.7%; with guanosine [2] (setting [6]), 12.7%; in the test on guanosine [2] (setting [7]), 28.3%.
For `[N-]=[N+]=NCCOC(F)C(=O)C=O` (stereo not shown) [drawing 74], the Conversion of guanosine in the test on guanosine [2] (setting [4]) is recorded as 50.1%; in the test on guanosine [2] (setting [5]), 57.1%; in the test on guanosine [2] (setting [6]), 58.2%; with guanosine [2] (setting [7]), 46.2%.
For `[N-]=[N+]=NCCOC(F)(F)C(=O)C=O` [drawing 75], the Conversion of guanosine with guanosine [2] (setting [4]) was 49.2%; with guanosine [2] (setting [5]), 55.1%; with guanosine [2] (setting [6]), 54.7%; with guanosine [2] (setting [7]), 41.5%.
For `CC(C)(OCCN=[N+]=[N-])C(=O)C=O` [drawing 78], the “Conversion of guanosine under competition condition” value in the test on guanosine [3] (setting [8]) is listed as 51.6%; in the test with guanosine [3] (setting [9]) it was 55.9%; in the test with guanosine [3] (setting [10]), 33.6%.
As to `[N-]=[N+]=NCCOCC(=O)C=O` [drawing 79], the “Conversion of guanosine under competition condition” value in the test on guanosine [3] (setting [8]) was found to be 47.4%; in the test with guanosine [3] (setting [9]) it was 29.7%; in the test with guanosine [3] (setting [10]) it was 27.4%.
The matching figures for `CC(OC(=O)CN=[N+]=[N-])C(=O)C=O` (stereo not shown) [drawing 80]: 54.4%, 44.6% and 37.5%.
On to `CC(N=[N+]=[N-])C(=O)C=O` (stereo not shown) [drawing 81], for which the “Conversion of guanosine under competition condition” value in the test with guanosine [3] (setting [8]) worked out at 56.5%; in the test with guanosine [3] (setting [9]), 40.9%.
Turning to `CC(Br)C(=O)C=O` (stereo not shown) [drawing 82], the “Conversion of guanosine under competition condition” value stood at 46.2% in the test on guanosine [3] (setting [8]), 38.2% with guanosine [3] (setting [9]) and 18.6% in the test on guanosine [3] (setting [10]).
For the compound `[N-]=[N+]=NCCCC(=O)C=O` [drawing 85], the “Conversion of guanosine under competition condition” value in the test with guanosine [3] (setting [8]) was determined as 46.2%; in the test on guanosine [3] (setting [9]), 21.0%; in the test with guanosine [3] (setting [10]), 22.1%.
The matching figures for `CC(C(=O)C=O)N(C)C(=O)CN=[N+]=[N-]` (stereo not shown) [drawing 86]: 41.8%, 26.1% and 23.4%.
The matching figures for `[N-]=[N+]=NCCOCCC(=O)C=O` [drawing 87]: 41.3%, 12.6% and 11.2%.
For `O=CC(=O)c1ccccc1` [drawing 88], the figures for the “Conversion of guanosine under competition condition” value in the test on guanosine [3] (setting [8]), in the test on guanosine [3] (setting [9]) and in the test on guanosine [3] (setting [10]) were 25.7%, 12.3% and 4.4%, respectively.
Turning to `[N-]=[N+]=NCCOC(F)C(=O)C=O` (stereo not shown) [drawing 89], the “Conversion of guanosine under competition condition” value is recorded as 6.4% with guanosine [3] (setting [8]), 18.6% in the test with guanosine [3] (setting [9]) and 22.8% in the test with guanosine [3] (setting [10]).
Regarding `[N-]=[N+]=NCCOC(F)(F)C(=O)C=O` [drawing 90], the “Conversion of guanosine under competition condition” value in the test on guanosine [3] (pH = 10.1, 10 min, excess GTP added after 10 min) is 51.2% (pH = 10.1); in the test with guanosine [3] (pH = 10.1, 2 h, excess GTP competitor), 42.4% (pH = 10.1); in the test with guanosine [3] (pH = 10.1, 24 h, excess GTP competitor), 22.2% (pH = 10.1).
For `O=CC(=O)Cc1ccccc1` [drawing 91], the results for the “Conversion of guanosine under competition condition” value with guanosine [3] (setting [8]), in the test on guanosine [3] (setting [9]) and with guanosine [3] (setting [10]) were 21.8%, 9.6% and 8.4%, respectively.
Regarding `CC(OCCn1cc(-c2ccc(O)cc2)nn1)C(=O)C=O` (stereo not shown) [phenol-kethoxal], the “Labeling activity on RNA oligo” value in test [1] was “label the oligo efficiently, with all four guanines on all oligo molecules modified”. In the test on Cells, the “Biotin signal of RNA from treated cells after HRP/biotin-phenol/H2O2 biotinylation” value is “stronger biotin signals compared with the control sample”.
